Source: patent publication US7553862B2, “4-amino-1,5-substituted-1,5-dihydro-imidazol-2-ones” (Hoffmann-La Roche Inc., priority 2006, dated 2009)

Target: T1, mGlyT-1b (Mus musculus, UniProt P28571)
T1 construct: host or cells: Flp-in-CHO
T1 sequence (P28571 1-651 isoform P28571-2): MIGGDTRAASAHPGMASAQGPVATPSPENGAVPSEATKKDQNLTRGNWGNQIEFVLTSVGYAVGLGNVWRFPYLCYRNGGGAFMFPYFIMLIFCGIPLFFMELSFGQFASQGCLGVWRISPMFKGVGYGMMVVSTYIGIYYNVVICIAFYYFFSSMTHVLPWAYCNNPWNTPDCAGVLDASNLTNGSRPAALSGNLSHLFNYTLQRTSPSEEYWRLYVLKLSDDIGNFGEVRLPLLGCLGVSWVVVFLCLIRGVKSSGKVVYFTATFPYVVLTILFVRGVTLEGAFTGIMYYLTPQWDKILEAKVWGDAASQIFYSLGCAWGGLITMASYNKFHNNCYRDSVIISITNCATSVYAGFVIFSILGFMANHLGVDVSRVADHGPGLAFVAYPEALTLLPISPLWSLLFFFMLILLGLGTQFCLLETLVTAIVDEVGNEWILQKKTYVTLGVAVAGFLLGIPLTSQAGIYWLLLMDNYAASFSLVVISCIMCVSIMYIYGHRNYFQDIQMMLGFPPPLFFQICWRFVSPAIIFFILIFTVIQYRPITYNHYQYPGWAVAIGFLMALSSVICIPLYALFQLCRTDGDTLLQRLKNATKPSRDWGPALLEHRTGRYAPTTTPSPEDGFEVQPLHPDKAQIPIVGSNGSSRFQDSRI
Test: Glycine uptake inhibition assay (mGlyT-1b)
Assay type: cell-based
Conditions: [3H]-glycine uptake in Flp-in-CHO cells transfected with mGlyT-1b cDNA; read-out: IC50 (μM) at GlyT-1
Description: DMEM complete medium: Nutrient mixture F-12 (Gibco Life-technologies), fetal bovine serum (FBS) 5%, (Gibco life technologies), Penicillin/Streptomycin1% (Gibco life technologies), Hygromycin 0.6 mg/ml (Gibco life technologies), Glutamine 1 mM Gibco life technologies) Uptake buffer (UB): 150 mM NaCl, 10 mM Hepes-Tris, pH 7.4, 1 mM CaCl2, 2.5 mM KCl, 2.5 mM MgSO4, 10 mM (+) D-glucose.
Flp-in™-CHO (Invitrogen Cat n° R758-07) cells stably transfected with mGlyT1b cDNA.
Glycine Uptake Inhibition Assay (mGlyT-1b)
On day 1 mammalian cells, (Flp-in™-CHO), transfected with mGlyT-1b cDNA, were plated at the density of 40,000 cells/well in complete F-12 medium, without hygromycin in 96-well culture plates. On day 2, the medium was aspirated and the cells were washed twice with uptake buffer (UB). The cells were then incubated for 20 min at 22° C. with either (i) no potential competitor, (ii) 10 mM non-radioactive glycine, (iii) a concentration of a potential inhibitor. A range of concentrations of the potential inhibitor was used to generate data for calculating the concentration of inhibitor resulting in 50% of the effect (e.g. IC50, the concentration of the competitor inhibiting glycine uptake of 50%). A solution was then immediately added containing [^3H]-glycine 60 nM (11-16 Ci/mmol) and 25 μM non-radioactive glycine. The plates were incubated with gentle shaking and the reaction was stopped by aspiration of the mixture and washing (three times) with ice-cold UB. The cells were lysed with scintillation liquid, shaken 3 hours and the radioactivity in the cells was counted using a scintillation counter.

| Compound | IC50 [µM] |
| --- | --- |
| O=C1N=C(NCc2ccccc2)C(c2ccccc2)N1c1ccc(Cl)cc1 (racemic) [Example 10, (Rac)-4-benzylamino-1-(4-chloro-phenyl)-5-phenyl-1,5-dihydro-imidazol-2-one] | 0.062 |
| O=C1N=C(NCc2ccccc2)C(c2ccccc2)N1c1ccc(Cl)c(Cl)c1 (racemic) [Example 13, Rac-4-benzylamino-1-(3,4-dichloro-phenyl)-5-phenyl-1,5-dihydro-imidazol-2-one] | 0.076 |
| CCCCCCNC1=NC(=O)N(c2ccc(Cl)c(Cl)c2)C1c1ccccc1 (racemic) [Example 57, (Rac)-1-(3,4-dichloro-phenyl)-4-hexylamino-5-phenyl-1,5-dihydro-imidazol-2-one] | 0.077 |
| O=C1N=C(NCc2ccccc2)[C@@H](c2ccccc2)N1c1ccc(Cl)cc1 (single isomer, unassigned) [Example 50, (−)-4-Benzylamino-1-(4-chloro-phenyl)-5-phenyl-1,5-dihydro-imidazol-2-one] | 0.062 |
| CC(C)CCNC1=NC(=O)N(c2ccc(Cl)c(Cl)c2)C1c1ccccc1 (racemic) [Example 53, Rac-1-(3,4-dichloro-phenyl)-4-(3-methyl-butylamino)-5-phenyl-1,5-dihydroimidazol-2-one] | 0.082 |

These reach a lower IC50. Values come first.

| IC50 [µM] | Compound |
| --- | --- |
| 0.057 | Cc1ccc(C2C(NCc3ccccc3)=NC(=O)N2c2ccc(Cl)c(Cl)c2)cc1C (racemic) [Example 25, Rac-4-benzylamino-1-(3,4-dichloro-phenyl)-5-(3,4-dimethyl-phenyl)-1,5-dihydro-imidazol-2-one] |
| 0.035 | O=C1N=C(NCc2ccccc2)C(c2ccc(Cl)cc2)N1c1ccc(Cl)c(Cl)c1 (racemic) [Example 28, (Rac)-4-benzylamino-5-(4-chloro-phenyl)-1-(3,4-dichloro-phenyl)-1,5-dihydro-imidazol-2-one] |
| 0.024 | O=C1N=C(NCC2CCCCC2)C(c2ccccc2)N1c1ccc(Cl)c(Cl)c1 (racemic) [Example 58, (Rac)-4-(cyclohexylmethyl-amino)-1-(3,4-dichloro-phenyl)-5-phenyl-1,5-dihydro-imidazol-2-one] |
| 0.007 | O=C1N=C(NCc2ccc(F)cc2)C(c2ccccc2)N1c1ccc(Cl)c(Cl)c1 (racemic) [Example 51, Rac-1-(3,4-dichloro-phenyl)-4-(4-fluorobenzylamino)-5-phenyl-1,5-dihydro-imidazol-2-one] |
| 0.04 | Cc1ccc(C2C(NCc3ccccc3)=NC(=O)N2c2ccc(Cl)c(Cl)c2)cc1 (racemic) [Example 24, (Rac)-4-benzylamino-1-(3,4-dichloro-phenyl)-5-p-tolyl-1,5-dihydro-imidazol-2-one] |
| 0.03 | O=C1N=C(NCc2ccccc2)C(c2ccc(F)cc2)N1c1ccc(Cl)c(Cl)c1 (racemic) [Example 43, (Rac)-4-benzylamino-1-(3,4-dichloro-phenyl)-5-(4-fluoro-phenyl)-1,5-dihydro-imidazol-2-one] |
| 0.058 | O=C1N=C(NCc2ccccc2)C(c2ccc(F)cc2)N1c1ccc(F)c(Cl)c1 (racemic) [Example 44, Rac-4-Benzylamino-1-(3-chloro-4-fluoro-phenyl)-5-(4-fluoro-phenyl)-1,5-dihydro-imidazol-2-one] |
